From patent US20250325687A1, “CONJUGATE COMPRISING TOLL-LIKE RECEPTOR AGONIST” (MABSOFT THERAPEUTICS (SHANGHAI) CO., LTD., priority 2022, published 2025)

Columns and labels:
Type in all cases: cell-based
[1] = target: T1, hTLR8 (human Toll-like receptor 8) (Homo sapiens, UniProt Q9NR97); test: hTLR8 cell assay (HEK-Blue hTLR8 reporter cells); conditions: 24 hours, OD 650 nm
T1 construct: host or cells: HEK-Blue hTLR8 (HEK293-derived reporter cells)
T1 sequence (Q9NR97 27-1041): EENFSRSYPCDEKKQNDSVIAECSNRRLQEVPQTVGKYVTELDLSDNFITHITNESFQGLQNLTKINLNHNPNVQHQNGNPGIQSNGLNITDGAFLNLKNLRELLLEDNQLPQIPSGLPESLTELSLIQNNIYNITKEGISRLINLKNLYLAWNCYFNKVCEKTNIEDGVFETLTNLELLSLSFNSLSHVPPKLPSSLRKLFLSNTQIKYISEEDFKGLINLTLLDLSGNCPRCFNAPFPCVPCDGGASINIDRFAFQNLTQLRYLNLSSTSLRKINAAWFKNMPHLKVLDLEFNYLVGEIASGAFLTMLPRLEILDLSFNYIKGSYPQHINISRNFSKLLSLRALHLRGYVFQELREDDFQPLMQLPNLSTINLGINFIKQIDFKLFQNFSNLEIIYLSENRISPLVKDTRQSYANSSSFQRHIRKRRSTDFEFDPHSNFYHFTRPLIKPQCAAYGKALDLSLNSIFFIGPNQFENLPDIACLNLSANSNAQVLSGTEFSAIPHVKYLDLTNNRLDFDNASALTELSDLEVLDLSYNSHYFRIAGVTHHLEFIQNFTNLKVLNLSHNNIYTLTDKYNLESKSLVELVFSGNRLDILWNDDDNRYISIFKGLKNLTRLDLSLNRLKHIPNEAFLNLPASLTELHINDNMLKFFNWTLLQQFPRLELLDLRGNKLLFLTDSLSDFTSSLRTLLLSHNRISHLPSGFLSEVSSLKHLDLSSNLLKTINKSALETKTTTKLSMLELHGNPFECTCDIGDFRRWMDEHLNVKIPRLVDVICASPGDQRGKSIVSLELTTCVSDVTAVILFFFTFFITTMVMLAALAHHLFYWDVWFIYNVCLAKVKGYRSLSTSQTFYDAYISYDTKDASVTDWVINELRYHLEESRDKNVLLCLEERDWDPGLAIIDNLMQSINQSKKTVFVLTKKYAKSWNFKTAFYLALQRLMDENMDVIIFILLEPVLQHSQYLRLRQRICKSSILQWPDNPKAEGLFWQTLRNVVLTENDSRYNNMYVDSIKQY
Description: (§1) The payload compounds of Formula (II′) were assayed to evaluate their agonistic activity on hTLR7 (human Toll-like receptor 7) and hTLR8 (human Toll-like receptor 8). Reporter cells lines (HEK-Blue hTLR7 and HEK-Blue hTLR8) were obtained from InvivoGen. Cells were cryopreserved in liquid nitrogen per supplier's instruction. Upon test, the cells were thawed, passaged and cultured in the growth media of DMEM supplemented with 10% fetal bovine serum, 1×NEAA, 1 mM Pyruvate, 2 mM glutamine, […] in the presence of the following antibiotics, as shown as Table 1. Test compounds (at desired concentrations diluted) were added to the 96-well assay plate, 0.5 μL per well. Reporter cells were harvested from the tissue culture flasks by incubation in PBS at 37° C. for two minutes after the media in the flask is removed and cells rinsed with PBS. Cells were counted and diluted in the HEK-Blue Detection media at 50000 cells/mL and incubated for 24 hours at 37° C., in a 5% CO2 humidified incubator. Then 20 μL of cell supernatant were added to the assay plate containing the 180 µL of QUANTI-Blue, incubated for 1 hour at 37° C. Optical density at 650 nm was analyzed using an Envision (Perkin Elmer) plate reader.

[2] = target: T2, hTLR7 (human Toll-like receptor 7) (Homo sapiens, UniProt Q9NYK1); test: hTLR7 cell assay (HEK-Blue hTLR7 reporter cells); conditions: 24 hours, OD 650 nm
T2 construct: host or cells: HEK-Blue hTLR7 (HEK293-derived reporter cells)
T2 sequence (Q9NYK1 27-1049): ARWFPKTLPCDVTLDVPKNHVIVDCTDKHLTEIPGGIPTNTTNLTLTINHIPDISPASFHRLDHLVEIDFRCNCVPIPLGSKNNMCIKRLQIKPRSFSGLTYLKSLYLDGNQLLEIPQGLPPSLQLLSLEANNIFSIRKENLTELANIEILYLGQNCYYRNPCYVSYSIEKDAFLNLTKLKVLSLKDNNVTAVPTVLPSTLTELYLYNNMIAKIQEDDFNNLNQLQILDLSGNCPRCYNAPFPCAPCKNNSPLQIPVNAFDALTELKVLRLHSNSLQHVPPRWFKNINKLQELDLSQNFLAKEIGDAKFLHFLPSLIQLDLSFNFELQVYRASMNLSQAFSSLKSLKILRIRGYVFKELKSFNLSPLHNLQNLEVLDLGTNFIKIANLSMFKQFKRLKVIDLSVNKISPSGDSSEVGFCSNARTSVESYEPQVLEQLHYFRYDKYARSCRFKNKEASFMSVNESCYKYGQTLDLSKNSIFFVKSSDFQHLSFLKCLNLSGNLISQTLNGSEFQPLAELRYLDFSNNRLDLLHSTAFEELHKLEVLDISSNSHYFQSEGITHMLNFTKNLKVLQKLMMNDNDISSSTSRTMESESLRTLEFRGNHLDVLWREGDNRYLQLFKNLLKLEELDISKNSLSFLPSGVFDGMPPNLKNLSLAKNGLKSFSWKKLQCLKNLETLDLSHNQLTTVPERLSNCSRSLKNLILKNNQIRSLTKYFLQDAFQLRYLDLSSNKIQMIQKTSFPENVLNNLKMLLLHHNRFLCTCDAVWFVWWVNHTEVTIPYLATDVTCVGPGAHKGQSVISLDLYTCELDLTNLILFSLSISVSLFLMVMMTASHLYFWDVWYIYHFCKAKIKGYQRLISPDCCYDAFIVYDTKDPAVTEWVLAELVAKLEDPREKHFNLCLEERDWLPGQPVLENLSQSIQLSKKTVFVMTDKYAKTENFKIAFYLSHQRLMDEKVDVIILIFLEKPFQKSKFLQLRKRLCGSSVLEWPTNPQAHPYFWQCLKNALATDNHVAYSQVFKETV
Description: as §1

[3] = tested on: human PBMC (human peripheral blood mononuclear cells); test: PBMC screening assay: induction of TNF-α production; conditions: human PBMC, 24 hours, TNF-α by ELISA; class symbols; read-out: EC50 (μM) TNF-α (hPBMC)
Description: The payload compounds of Formula (II′) were assayed to evaluate the induction of TNF-α production in human PBMC (human peripheral blood mononuclear cells).
Human peripheral blood mononuclear cells (PBMC) were obtained from Allcells. […] PBMC were incubated for 24 hours at 37° C. in a 5% CO2 humidified incubator. The following day PBMC plates were centrifuged at 500×g for 5 minutes and the growth media was removed. 200 μL of compound prepared in growth media at a series of diluted concentrations ranging from 2.54 nM to 50 μM were added to PBMC in duplicate and incubated for 24 hours at 37° C. in a 5% CO2 incubator. Prior to supernatant harvest, cells were spun at 500×g for 5 minutes to remove cell debris. TNF-α activity was assessed in the supernatant by ELISA (Elabscience) per the manufacturer's instructions. Optical density at 450 nm (ELISA) was analyzed using a plate reader.

Row | SMILES | EC50 [1] | EC50 [2] | EC50 [3]
1 | CCOCc1nc2c(N)nc3cc(Cc4ccc(CCN)cc4)ccc3c2n1CCNS(C)(=O)=O [Compound 34, N-(2-(4-amino-7-(4-(2-aminoethyl)benzyl)-2-(ethoxymethyl)-1H-imidazo[4,5-c]quinolin-1-yl)ethyl)methanesulfonamide] | > 20 µM | > 10 µM | –
2 | CCOCc1nc2c(N)nc3cc(Cc4ccc(CC(N)=O)cc4)ccc3c2n1CCNS(C)(=O)=O [Compound 35, 2-(4-((4-amino-2-(ethoxymethyl)-1-(2-(methylsulfonamido)ethyl)-1H-imidazo[4,5-c]quinolin-7-yl)methyl)phenyl)acetamide] | > 20 µM | 1 to 10 µM | –
3 | CCOCc1nc2c(N)nc3cc(Cc4ccccc4)ccc3c2n1CC(C)(C)NCCCN [Compound 36, NJ-(1-(4-amino-7-benzyl-2-(ethoxymethyl)-1H-imidazo[4,5-c]quinolin-1-yl)-2-methylpropan-2-yl)propane-1,3-diamine] | > 20 µM | > 10 µM | –
4 | CCOCc1nc2c(N)nc3cc(Cc4ccccc4)ccc3c2n1CC(C)(C)NCCN [Compound 37, N1-(1-(4-amino-7-benzyl-2-(ethoxymethyl)-1H-imidazo[4,5-c]quinolin-1-yl)-2-methylpropan-2-yl)ethane-1,2-diamine] | > 20 µM | > 10 µM | –
5 | CCOCc1nc2c(N)nc3cc(Cc4ccccc4)ccc3c2n1CC(C)(C)N [Compound 38, 1-(2-amino-2-methylpropyl)-7-benzyl-2-(ethoxymethyl)-1H-imidazo[4,5-c]quinolin-4-amine] | > 20 µM | > 10 µM | –
6 | CCOCc1nc2c(N)nc3cc(Cc4ccccc4)ccc3c2n1CCCCN [Compound 39, 1-(4-aminobutyl)-7-benzyl-2-(ethoxymethyl)-1H-imidazo[4,5-c]quinolin-4-amine] | 5 to 20 µM | > 10 µM | –
7 | CCOCc1nc2c(N)nc3cc(Cc4ccccc4)ccc3c2n1CC1CC(CN)C1 (centres unmarked) [Compound 40, 1-((3-(aminomethyl)cyclobutyl)methyl)-7-benzyl-2-(ethoxymethyl)-1H-imidazo[4,5-c]quinolin-4-amine] | > 20 µM | 1 to 10 µM | –
8 | CCCC(C)c1nc2c(N)nc3cc(Cc4ccc(CCN)cc4)ccc3c2n1Cc1ccccc1 (centres unmarked) [Compound 41, 7-(4-(2-aminoethyl)benzyl)-1-benzyl-2-(pentan-2-yl)-1H-imidazo[4,5-c]quinolin-4-amine] | 5 to 20 µM | 1 to 10 µM | –
9 | CCCC(C)c1nc2c(N)nc3cc(Cc4ccccc4)ccc3c2n1Cc1ccc(CN)cc1 (centres unmarked) [Compound 42, 1-(4-(aminomethyl)benzyl)-7-benzyl-2-(pentan-2-yl)-1H-imidazo[4,5-c]quinolin-4-amine] | < 5 µM | 1 to 10 µM | –
10 | CCOCc1nc2c(N)nc3cc(Cc4ccccc4)ccc3c2n1Cc1ccc(CN)cc1 [Compound 43] | 5 to 20 µM | < 1 µM | –
11 | CCOCc1nc2c(N)nc3cc(Cc4ccc(CCN)cc4)ccc3c2n1Cc1ccc(CO)cc1 [Compound 45, (4-((4-amino-7-(4-(2-aminoethyl)benzyl)-2-(ethoxymethyl)-1H-imidazo[4,5-c]quinolin-1-yl)methyl)phenyl) methanol] | > 20 µM | 1 to 10 µM | –
12 | CCOCc1nc2c(N)nc3cc(Cc4ccccc4)ccc3c2n1CCC(O)C(F)(F)F (centres unmarked) [Compound 46, 4-(4-amino-7-benzyl-2-(ethoxymethyl)-1H-imidazo[4,5-c]quinolin-1-yl)-1,1,1-trifluorobutan-2-ol] | > 20 µM | > 10 µM | –
13 | CCOCc1nc2c(N)nc3cc(Cc4ccc(CCN)cc4)ccc3c2n1CC1(O)CC1 [Compound 47, 1-((4-amino-7-(4-(2-aminoethyl)benzyl)-2-(ethoxymethyl)-1H-imidazo[4,5-c]quinolin-1-yl)methyl)cyclopropan-1-ol] | > 20 µM | > 10 µM | –
14 | CCCC(C)c1nc2c(N)nc3cc(Cc4ccc(CCN)cc4)ccc3c2n1CC(C)(C)OC (centres unmarked) [Compound 48, 7-(4-(2-aminoethyl)benzyl)-1-(2-methoxy-2-methylpropyl)-2-(pentan-2-yl)-1H-imidazo[4,5-c]quinolin-4-amine] | 5 to 20 µM | > 10 µM | –
15 | CCOCc1nc2c(N)nc3cc(Cc4ccc(CCN)cc4)ccc3c2n1C[C@@H]1[C@@H](CO)C1(F)F [Compound 49, ((1S,3S)-3-((4-amino-7-(4-(2-aminoethyl)benzyl)-2-(ethoxymethyl)-1H-imidazo[4,5-c]quinolin-1-yl)methyl)-2,2-difluorocyclopropyl)methanol] | 5 to 20 µM | > 10 µM | –
16 | CCOCc1nc2c(N)nc3cc(Cc4ccc(CCN)cc4)ccc3c2n1CC(C)(C)OCCO [Compound 72, 2-((1-(4-amino-7-(4-(2-aminoethyl)benzyl)-2-(ethoxymethyl)-1H-imidazo[4,5-c]quinolin-1-yl)-2-methylpropan-2-yl)oxy)ethan-1-ol] | > 20 µM | < 1 µM | –
17 | CCOCc1nc2c(N)nc3cc(Cc4ccc(CC(N)=O)cc4)ccc3c2n1CC(C)(C)O [Compound 73, 2-(4-((4-amino-2-(ethoxymethyl)-1-(2-hydroxy-2-methylpropyl)-1H-imidazo[4,5-c]quinolin-7-yl)methyl)phenyl)acetamide] | > 20 µM | < 1 µM | –
18 | CCOCc1nc2c(N)nc3cc(Cc4ccc(CNC(=O)CO)s4)ccc3c2n1CC(C)(C)O [Compound 169] | – | – | > 0.64 µM
